Where two headings read alike, the source gives them in different places. Non-standard residues stand in square brackets, D forms with d. Residues, ends and D or L forms follow the SMILES beside them. *: point of attachment. Phe(4-Cl) = N[C@@H](Cc1ccc(Cl)cc1)C(=O)O; hArg = N=C(N)NCCCC[C@H](N)C(=O)O; 12Ado = NCCCCCCCCCCCC(=O)O; Nle = CCCC[C@H](N)C(=O)O; Orn = NCCC[C@H](N)C(=O)O; Abu = CC[C@H](N)C(=O)O; PhAc = O=C(Cc1ccccc1)*
What was measured:
[1] = tested on: NCI-N87 stomach cancer cells; assay: In vitro cell viability (CellTiter 96), N87; assay type: cell-based, human; settings: antagonist 5 μM for 72 h, cell proliferation assay; MIA602 = 1
Method: (§1) The inhibitory effects of the various synthesized GHRH antagonists were tested in cell proliferation assays in various human cancer cell lines including stomach cancer (KATOIII, N87), colon cancer (HT-29), urothelial cancer (J82, RT4), pancreatic cancer (PANC-1, CFPAC-1), prostatic cancer (PC3), breast cancer (MX-1, HCC1806), ovarian cancer (SK-OV-3, OVCAR-3) and lung cancer (HCC827, H460).
(§2) Cell culture. Human cancer cell lines including pancreatic (PANC-1 and CFPAC-1), lung (HCC827 and H460), stomach (NCI-N87 and KATOIII), urothelial (J82, RT4), prostatic (PC3), breast (MX-1 and HCC 1806), colorectal (HT-29), and ovarian (SK-OV-3 and OVCAR-3) were obtained from the American Type Culture Collection (ATCC) and cultured at 37° C. in a humidified 95% air/5% CO2 atmosphere in the medium recommended by ATCC.
(§3) In vitro cell viability. Cell viability was analyzed as follows: cancer cells including pancreatic (PANC-1 and CFPAC-1), lung (HCC827 and H460), stomach (NCI-N87 and KATOIII), urothelial (J82, RT4), prostatic (PC3) and breast (MX-1 and HCC 1806), colorectal (HT-29) and ovarian (SK-OV-3 and OVCAR-3) were grown on 96 well plates to ˜60% confluence, the cells were starved for 24 h in culture medium containing 0.5% FBS. Cells were then treated with GHRH antagonists MIA602 AVR compounds at concentrations of 1, 2.5 or 5 μM, or vehicle (0.1% DMSO) in quintuplicates for 72 hours. The medium was replaced every 48 hours. Cell viability was measured using CellTiter 96 aqueous one solution kit (Promega). Inhibitory effects of tested AVR compounds in comparison to that of MIA602 are presented as inhibitory potency.
(§4) Inhibitory effects of selected AVR compounds in comparison to that of MIA602 are presented as inhibitory potency (e.g., percentage of inhibition). […] The cell lines tested including lung cancer HCC827 (FIG. 2A), pancreatic cancer CFPAC-1 (FIG. 2B), stomach cancer N87 (FIG. 2C), colon cancer HT-29 (FIG. 2D), breast cancers MX-1 and HCC1806 (FIGS. 2 E, F). Based on the results of cell proliferation assay after cancer cells were treated with antagonist at concentration of 5 μM for 72H, the relative inhibitory potency of AVR antagonists in comparison to MIA-602 is summarized in Table 3 A and B. Over 60 AVR compounds were tested in 12 cancer cell lines.
(§5) Based on the results of cell proliferation assay after cancer cells were treated with antagonist at concentration of 5 µM for 72H, * at concentration of 2 µM for 72 H.

[2] = tested on: KATOIII stomach cancer cells; assay: In vitro cell viability, KATOIII; assay type: cell-based, human; settings: antagonist 5 μM for 72 h, cell proliferation assay; MIA602 = 1
Summary of the method: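 Cells grown to ~60% confluence, serum-starved 24 h in 0.5% FBS, then treated with antagonists at 1, 2.5 or 5 μM or vehicle (0.1% DMSO) in quintuplicate for 72 h, medium replaced every 48 h. Viability read by MTS-type CellTiter 96 AQueous One assay; expressed as inhibitory potency relative to MIA602.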

HCC827 lung cancer cells = assay: In vitro cell viability, HCC827; assay type: cell-based, human; settings: antagonist 5 μM for 72 h, cell proliferation assay; MIA602 = 1
Method: as §1, §2, §3, §4, §5

[3] = tested on: CFPAC-1 pancreatic cancer cells; assay: In vitro cell viability, CFPAC-1; assay type: cell-based, human; settings: antagonist 5 μM for 72 h, cell proliferation assay; MIA602 = 1
Method: as §1, §2, §3, §4, §5

[4] = tested on: PANC-1 pancreatic cancer cells; assay: In vitro cell viability, PANC-1; assay type: cell-based, human; settings: antagonist 5 μM for 72 h, cell proliferation assay; MIA602 = 1
Method: as §1, §2, §3, §4

[5] = tested on: J82 urothelial cancer cells; assay: In vitro cell viability, J82; assay type: cell-based, human; settings: antagonist 5 μM for 72 h, cell proliferation assay; MIA602 = 1
Method: as §1, §2, §3, §4

[6] = tested on: RT4 urothelial cancer cells; assay: In vitro cell viability, RT4; assay type: cell-based, human; settings: antagonist 5 μM for 72 h, cell proliferation assay; MIA602 = 1
Method: as §1, §2, §3
(§6) Inhibitory effects of selected AVR compounds in comparison to that of MIA602 are presented as inhibitory potency (e.g., percentage of inhibition). […] The cell lines tested including lung cancer HCC827 (FIG. 2A), pancreatic cancer CFPAC-1 (FIG. 2B), stomach cancer N87 (FIG. 2C), colon cancer HT-29 (FIG. 2D), breast cancers MX-1 and HCC1806 (FIGS. 2 E, F). […]

[7] = tested on: PC3 prostatic cancer cells; assay: In vitro cell viability, PC3; assay type: cell-based, human; settings: antagonist 5 μM for 72 h, cell proliferation assay; MIA602 = 1
Method: as §1, §2, §3, §6

[8] = tested on: HCC1806 breast cancer cells; assay: In vitro cell viability, HCC1806; assay type: cell-based, human; settings: antagonist 5 μM for 72 h, cell proliferation assay; MIA602 = 1
Method: as §1, §2, §3, §4, §5

MX-1 breast cancer cells = assay: In vitro cell viability, MX-1; assay type: cell-based, human; settings: antagonist 5 μM for 72 h, cell proliferation assay; MIA602 = 1
Method: as §1, §2, §3, §4, §5

[9] = target: T1, membrane GHRH-receptors on human anterior pituitary cells (Homo sapiens, UniProt Q02643); assay: Receptor binding, displacement of 125I-[His1,Nle27]-hGH-RH(1-32)NH2 on human pituitary membranes
T1 construct: Human pituitary was purchased from the National Hormone and Peptide Program; tissue National Hormone and Peptide Program; host or cells: human pituitary (membrane fractions)
T1 sequence (Q02643 23-423): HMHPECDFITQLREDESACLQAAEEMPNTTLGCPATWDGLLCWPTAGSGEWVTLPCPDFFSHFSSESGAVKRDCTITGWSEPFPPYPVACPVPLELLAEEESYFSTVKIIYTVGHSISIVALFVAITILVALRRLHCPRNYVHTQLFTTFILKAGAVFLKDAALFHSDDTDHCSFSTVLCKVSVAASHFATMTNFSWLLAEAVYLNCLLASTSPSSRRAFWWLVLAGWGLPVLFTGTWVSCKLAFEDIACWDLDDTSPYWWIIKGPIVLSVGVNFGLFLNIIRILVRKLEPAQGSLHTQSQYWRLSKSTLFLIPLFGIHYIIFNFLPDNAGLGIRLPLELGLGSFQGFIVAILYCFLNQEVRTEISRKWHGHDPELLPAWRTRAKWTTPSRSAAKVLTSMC
Summary of the method: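 Membrane fractions from human pituitary; peptides displace 125I-[His1,Nle27]-hGH-RH(1-32)NH2. IC50 is the dose giving 50% inhibition of specific binding, from duplicate tubes. Relative affinity is the ratio of test IC50 to hGH-RH(1-29)NH2 IC50.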

| IC50 ([9]; membrane receptors on human anterior pituitary cells, mean of two to three determinations, read-out: IC50) | Structure (SMILES) | relative inhibitory potency in comparison to MIA-602, Stomach N87 [1] | relative inhibitory potency in comparison to MIA-602, Stomach KATOIII [2] | relative inhibitory potency in comparison to MIA-602, Lung IICC827 (HCC827 lung cancer cells) | relative inhibitory potency in comparison to MIA-602, Pancreatic CFPAC-1 [3] | relative inhibitory potency in comparison to MIA-602, Pancreatic Panc-1 [4] | relative inhibitory potency in comparison to MIA-602, Urothelial J82 [5] | relative inhibitory potency in comparison to MIA-602, Urothelial RT4 [6] | relative inhibitory potency in comparison to MIA-602, Prostatic PC3 [7] | relative inhibitory potency in comparison to MIA-602, Breast IICC1806 [8] | relative inhibitory potency in comparison to MIA-602, Breast MX-1 (MX-1 breast cancer cells) | IC50 [9] |
| --- | --- | --- | --- | --- | --- | --- | --- | --- | --- | --- | --- | --- |
| – | CCCC[C@H](NC(=O)[C@@H](NC(=O)[C@H](CC(=O)O)NC(=O)[C@H](CCC(N)=O)NC(=O)[C@H](CC(C)C)NC(=O)[C@H](CC(C)C)NC(=O)[C@H](CCCN)NC(=O)[C@H](Cc1c[nH]cn1)NC(=O)[C@H](C)NC(=O)[C@H](CO)NC(=O)[C@H](CC(C)C)NC(=O)[C@H](CCC(N)=O)NC(=O)[C@H](CC)NC(=O)[C@H](CC(C)C)NC(=O)[C@@H](NC(=O)[C@H](CCCCN)NC(=O)[C@H](CCCNC(=N)N)NC(=O)[C@H](Cc1ccc(OC)cc1)NC(=O)[C@H](CCCNC(=N)N)NC(=O)[C@H](C)NC(=O)[C@@H](NC(=O)[C@H](Cc1ccc(Cl)cc1)NC(=O)[C@@H](NC(=O)[C@H](C)NC(=O)[C@H](CC(=O)O)NC(=O)[C@@H](CCCNC(=N)N)NC(=O)[C@H](Cc1ccc(O)cc1)NC(=O)CCCCCCCCCCCNC(=O)Cc1ccccc1)[C@@H](C)CC)[C@@H](C)O)C(C)C)[C@@H](C)CC)C(=O)N[C@H](CCCNC(=N)N)C(=O)N[C@@H](CCCCNC(=N)N)C(N)=O [AVR-104, PhAC-Ada-Tyr-DArg-Asp-Ala-Ile-Cpa-Thr-Ala-Arg-Tyr(Me)-Arg-Lys-Val-Leu-Abu-Gln-Leu-Ser-Ala-His-Orn-Leu-Leu-Gln-Asp-Ile-Nle-DArg-Har-NH2] ({PhAc-12Ado}-Y[dR]DAI[Phe(4-Cl)]TARY(Me)RKVL[Abu]QLSAH[Orn]LLQDI[Nle][dR][hArg]-NH2) | 2.291 | 1.321 | 1.525 | 1.502 | 1.114 | 3.377 | 1.697 | 1.440 | 1.220 | 1.310 | 0.59 nM |
| 0.48 nM | CCCC[C@H](NC(=O)[C@@H](NC(=O)[C@H](CC(=O)O)NC(=O)[C@H](CCC(N)=O)NC(=O)[C@H](CC(C)C)NC(=O)[C@H](CC(C)C)NC(=O)[C@H](CCCN)NC(=O)[C@H](Cc1c[nH]cn1)NC(=O)[C@H](C)NC(=O)[C@H](CO)NC(=O)[C@H](CC(C)C)NC(=O)[C@H](CCC(N)=O)NC(=O)[C@H](CC)NC(=O)[C@H](CC(C)C)NC(=O)[C@@H](NC(=O)[C@H](CCCCN)NC(=O)[C@H](CCCNC(=N)N)NC(=O)[C@H](Cc1ccc(OC)cc1)NC(=O)[C@H](CCCNC(=N)N)NC(=O)[C@H](C)NC(=O)[C@@H](NC(=O)[C@H](Cc1ccc(Cl)cc1)NC(=O)[C@@H](NC(=O)[C@H](C)NC(=O)[C@H](CC(=O)O)NC(=O)[C@@H](CCCNC(=N)N)NC(=O)[C@H](Cc1ccc(O)cc1)NC(=O)CCCCCCCCCCCNC(=O)[C@H](N)Cc1ccccc1)[C@@H](C)CC)[C@@H](C)O)C(C)C)[C@@H](C)CC)C(=O)N[C@H](CCCNC(=N)N)C(=O)N[C@@H](CCCCNC(=N)N)C(N)=O [AVR-120, D-Phe-Ada-Tyr-DArg-Asp-Ala-Ile-Cpa-Thr-Ala-Arg-Tyr(Me)-Arg-Lys-Val-Leu-Abu-Gln-Leu-Ser-Ala-His-Orn-Leu-Leu-Gln-Asp-Ile-Nle-DArg-Har-NH2] (H-[dF][12Ado]Y[dR]DAI[Phe(4-Cl)]TARY(Me)RKVL[Abu]QLSAH[Orn]LLQDI[Nle][dR][hArg]-NH2) | 2.339 | 1.271 | 1.423 | 1.617 | 1.306 | 4.841 | 1.611 | – | – | – | – |

Source: patent US20210395327A1, “Growth Hormone-Releasing Hormone Antagonists and Uses Thereof” (United States Government As Represented By The Department …, priority 2019, published 2021)
